Data reported in paper PMC5110648, “Coupled binding mechanism of three sodium ions and aspartate in the glutamate transporter homologue GltTk” (Nature Communications, 2016).

Biological target: T1, GltTk (Thermococcus kodakarensis, UniProt Q5JID0)
T1 construct: gene TK0986; C-terminally His8-tagged, pBAD24-derived plasmid, E. coli MC1061; purified in decyl maltoside; trimer
Assay: isothermal titration calorimetry; crystal structure […] Å
Format: binding
Details: eight Na+ concentrations (apparent affinity strongly Na+-dependent); 10 mM Hepes KOH pH 8, 100 mM KCl, 0.15% DM, 25 °C; transport substrate site

T1 sequence (Q5JID0 entry or part of it): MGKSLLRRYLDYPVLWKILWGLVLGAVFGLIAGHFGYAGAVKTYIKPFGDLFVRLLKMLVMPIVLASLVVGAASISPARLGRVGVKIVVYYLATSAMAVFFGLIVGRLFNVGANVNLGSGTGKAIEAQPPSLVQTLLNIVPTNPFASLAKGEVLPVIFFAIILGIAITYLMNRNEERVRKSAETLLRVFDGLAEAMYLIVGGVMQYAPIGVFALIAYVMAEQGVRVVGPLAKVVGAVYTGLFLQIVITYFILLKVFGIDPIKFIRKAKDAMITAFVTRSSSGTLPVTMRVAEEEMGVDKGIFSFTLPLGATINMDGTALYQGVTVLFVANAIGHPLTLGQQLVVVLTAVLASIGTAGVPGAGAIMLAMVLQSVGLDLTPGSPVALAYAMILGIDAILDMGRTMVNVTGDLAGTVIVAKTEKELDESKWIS

Which Apparent affinity does the source give for `N[C@@H](CC(=O)O)C(=O)O` [L-aspartate] here?
Its Apparent affinity is “Apparent affinity of GltTk for aspartate as a function of Na^+ concentration”.
